# How the values were obtained:
# [1] = system: indomethacin induced intestinal injury; assay: Indomethacin-induced Crohn's disease in rats; assay type: in vivo
# Description: The objective of this study was to determine the efficacy of Compound 1 and Compound 2 in a model of Crohn's disease (indomethacin induced intestinal injury) in rats.
# The study design was identical for Compound 1 and Compound 2. On study day -3, rats were weighed and distributed into treatment groups based on body weight.
# On study day 0, treatment was initiated and continue as indicated in the Study Design Tables below. Groups 2-6 received a subcutaneous injection of indomethacin (9 mg/kg, 1 ml/kg) in 5% sodium bicarbonate (Sterile Water). On study day 1, Groups 2-6 received a second subcutaneous injection of indomethacin (8 mg/kg, 1 ml/kg) in 5% sodium bicarbonate (Sterile Water). Live phase sample & data collection specifics are outlined below. On study day 4, animals will be euthanized, a section of the small intestine will be removed and weighed. Further necropsy sample and data collection is specified below. Overall efficacy of test articles will be based on body weight, small intestine weight (10 cm), small intestine gross score, and histopathology
# At necropsy, the small intestines were evaluated visually and given a gross score according to the following criteria: 0=Normal. 0.5=Very Minimal thickening, multifocal in area at risk. 1=Minimal thickening, fairly diffuse in area at risk. 2=Mild to moderate small intestinal/mesenteric thickening throughout area at risk. 3=Moderate thickening with 1 or more definite adhesions that would be easy to separate. 4=Marked thickening with numerous hard to separate adhesions. 5=Severe intestinal lesion resulting in death.
# Preserved 9-cm sections of small intestine were trimmed into 6 transverse sections collected at approximately equal intervals along the […] of the intestine, without bias toward lesion presence or absence. These trimmed sections were processed through graded alcohols and a clearing agent, infiltrated and embedded in paraffin, sectioned, and stained with hematoxylin and eosin (H&E).
# Small intestine sections from all animals were examined microscopically by a board-certified veterinary pathologist, and observations were entered into a computer-assisted data retrieval system. Cross sections of small intestine were scored for inflammation and necrosis using the following criteria:
# The area at risk for development of this lesion is generally approximately 30% of the total area of a cross section of small intestine where the mesentery attaches.
# Inflammation is localized to the mesentery and intestinal area at risk for necrosis with slight extension on either side of it. […] In this case, inflammation is scored based on overall severity ranging from 0.5 (very minimal) to 5 (severe) without regard for the extent of necrosis. The mean score for necrosis and inflammation was calculated for each animal and these mean scores were then summed to arrive at a total score. Each section also has a measurement of total width of mucosal necrosis.
# [2] = PK study after oral (PO) or intraperitoneal (IP) administration; assay type: in vivo, male Sprague Dawley rats; details: CBG 30 mg/kg PO or IP; Compound 1 31.5 mg/kg PO; Compound 2 32.7 mg/kg PO
# Description: This study evaluated the pharmacokinetics of (E)-2-(3,7-dimethylocta-2,6-dien-1-yl)-3-methoxy-5-pentylphenol (1) and (E)-2-(3,7-dimethylocta-2,6-dien-1-yl)-1,3-dimethoxy-5-pentylbenzene (2) following oral (PO) or intraperitoneal (IP) administration to male Sprague Dawley rats.
# For the oral formulation the test article was added to the appropriate amount of Maisine and stirred until uniform. Next Labrasol was added to the formulation and allowed to stir until uniform. Finally, water will be slowly added to the stirring formulation to achieve the final volume.
# For the IP formulation the test article was added to the appropriate amount of ethanol and stirred until uniform. Next, the appropriate amount of tween-20 was added to the stirred formulation. Finally, the appropriate amount of saline was slowly added to the stirred formulation to achieve the final volume.
# Animals were fasted the evening prior to dosing with food returned at 4 h postdose, and the animals weighed on the morning of dose administration.
# IP doses were administered via injection to the intraperitoneal region. PO doses were delivered into the stomach via syringe and gavage tube.
# Blood was collected from via direct jugular stick or from the tail vein. Blood samples were kept on ice until being centrifuged at 3200 RPM for 10 minutes at ˜5° C. within 1 h of collection. Plasma was split into 2 cryovials in approximately equal volumes (0.05 mLs) and stored at −20° C.±5° C. until shipment.
# [3] = Group 5 (Compound 1: 200 mg/kg PO)
# [4] = Groups 4 and 5 (Compound 1: 50 and 200 mg/kg PO)
smiles,measurement,setting,value
"CCCCCc1cc(O)c(C/C=C(\C)CCC=C(C)C)c(OC)c1 [Compound 1, (E)-2-(3,7-dimethylocta-2,6-dien-1-yl)-3-methoxy-5-pentylphenol]",small intestine gross score compared to vehicle,[1]; Group 4 (Compound 1: 50 mg/kg PO),trend in lower small intestine gross score
same,histopathology scores vs vehicle and dexamethasone,[1]; [3],significantly lower
same,necrosis width vs vehicle and dexamethasone,[1]; [3],significantly lower
same,Histopathology scores vs vehicle (Group 2) and positive control (Group 3),[1]; [4],trended lower
same,necrosis width vs vehicle (Group 2) and positive control (Group 3),[1]; [4],trended lower
same,small intestine gross score compared to vehicle,[1]; Groups 5-6 (Compound 1: 200 and 800 mg/kg PO),significant reductions in gross score
same,small intestine weight compared to vehicle,"[1]; all three treatment groups (Groups 4-6), PO days 0-3",significantly lower
same,body weight change from Study Day -3 (preventing weight loss),"[1]; all treatment groups (Groups 4-6), PO days 0-3, in comparison to dexamethasone (Compound 2: and vehicle)",all trended towards or had significant differences in preventing weight loss
same,glucuronidation / glucuronide formation in plasma (in words),[2],significantly reduced levels of glucuronidation compared to CBG

# Reference: patent US12433903B2 (priority 2021, dated 2025)
